Results on 37 compounds are retold here after US9221756B2, “Pyrrole derivatives” (priority 2011, dated 2015).

Some results are limits rather than exact numbers.

The assay concerns the target pneumolysin (Streptococcus pneumoniae serotype 2, UniProt Q04IN8). Kind of assay: Inhibition of the haemolytic activity of pneumolysin (sheep erythrocytes). In kind it is cell-based. Particulars: IC50, inhibition of pneumolysin-induced haemolysis of sheep erythrocytes.

Chain of pneumolysin (Q04IN8 whole entry): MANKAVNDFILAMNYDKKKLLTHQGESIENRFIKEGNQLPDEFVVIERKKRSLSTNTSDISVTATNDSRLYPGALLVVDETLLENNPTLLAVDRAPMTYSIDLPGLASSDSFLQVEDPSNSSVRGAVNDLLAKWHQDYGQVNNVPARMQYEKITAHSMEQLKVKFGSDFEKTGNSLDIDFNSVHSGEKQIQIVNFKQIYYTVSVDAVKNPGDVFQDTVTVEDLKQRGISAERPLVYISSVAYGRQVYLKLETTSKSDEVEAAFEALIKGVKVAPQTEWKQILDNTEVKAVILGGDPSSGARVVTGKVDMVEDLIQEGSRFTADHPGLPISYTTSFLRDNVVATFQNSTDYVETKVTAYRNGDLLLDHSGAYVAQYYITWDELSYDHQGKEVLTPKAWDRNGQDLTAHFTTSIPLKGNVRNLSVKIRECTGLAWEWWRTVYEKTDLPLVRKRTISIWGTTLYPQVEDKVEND

Consider `CN(C)C(=O)c1c(O)c(O)c(C(=O)N(C)C)n1-c1ccc(F)cc1` [ULI-008, 1-(4-fluorophenyl)-3,4-dihydroxy-N^2,N^2,N^5,N^5-tetramethyl-1H-pyrrole-2,5-dicarboxamide], for which the IC50 (class symbols of Table 1) is less than 10 µM.
On the same count and under the same terms, to `COc1ccc(-n2c(C(=O)N(C)C)c(OC(=O)c3ccc(COP(=O)(O)O)cc3)c(OC(=O)c3ccc(COP(=O)(O)O)cc3)c2C(=O)N(C)C)cc1` [UL1-124, 2,5-bis(dimethylcarbamoyl)-1-(4-methoxyphenyl)-1H-pyrrole-3,4-diyl bis(4-((phosphonooxy)methyl)benzoate)] belongs less than 10 µM; to `CCOc1ccc(-n2c(C(=O)N(CC)CC)c(OCc3ccccc3)c(OCc3ccccc3)c2C(=O)N(CC)CC)cc1` [UL1-045, 3,4-bis(benzyloxy)-1-(4-ethoxyphenyl)-N^2,N^2,N^5,N^5-tetraethyl-1H-pyrrole-2,5-dicarboxamide], less than 10 µM; to `COc1ccc(-n2c(C(N)=O)c(OCc3ccccc3)c(OCc3ccccc3)c2C(N)=O)cc1` [UL1-072, 3,4-bis(benzyloxy)-1-(4-methoxyphenyl)-1H-pyrrole-2,5-dicarboxamide], 20 to 60 µM.
Regarding `COc1ccc(-n2c(C(=O)OC(C)C)c(O)c(O)c2C(=O)N(C)C)cc1` [UL1-035, isopropyl 5-(dimethylcarbamoyl)-3,4-dihydroxy-1-(4-methoxyphenyl)-1H-pyrrole-2-carboxylate], the IC50 runs as follows: (class symbols of Table 1) less than 10 µM; (specific values) 0.15 µM.
For the compound `CCNC(=O)c1c(OCc2ccccc2)c(OCc2ccccc2)c(C(=O)NCC)n1-c1ccc(OC)cc1` [UL1-074, 3,4-bis(benzyloxy)-N2,N5-diethyl-1-(4-methoxyphenyl)-1H-pyrrole-2,5-dicarboxamide], the IC50 (class symbols of Table 1) was in the range of 20 to 60 µM.
On to `CCOC(=O)c1c(OCc2ccccc2)c(OCc2ccccc2)c(-c2nnc(C)o2)n1-c1ccc(OC)cc1` [UL1-087, ethyl 3,4-bis(benzyloxy)-1-(4-methoxyphenyl)-5-(5-methyl-1,3,4-oxadiazol-2-yl)-1H-pyrrole-2-carboxylate], for which the IC50 (class symbols of Table 1) is less than 10 µM.
For the setting “class symbols of Table 1”, `O=C(c1c(O)c(O)c(C(=O)N2CCOCC2)n1-c1ccc(C(F)(F)F)cc1)N1CCOCC1` [UL1-023, (3,4-dihydroxy-1-(4-(trifluoromethyl)phenyl)-1H-pyrrole-2,5-diyl)bis(morpholinomethanone)] yielded an IC50 of less than 10 µM.
On the same count and under the same terms, the value for `COc1ccccc1-n1c(C(=O)N2CCOCC2)c(OCc2ccccc2)c(OCc2ccccc2)c1C(=O)N1CCOCC1` [UL1-051, (3,4-bis(benzyloxy)-1-(2-methoxyphenyl)-1H-pyrrole-2,5-diyl)bis(morpholinomethanone)] was 20 to 60 µM; that for `CCN(CC)C(=O)c1c(O)c(O)c(C(=O)N(CC)CC)n1-c1ccc(F)cc1` [UL1-001, N^2,N^2,N^5,N^5-tetraethyl-1-(4-fluorophenyl)-3,4-dihydroxy-1H-pyrrole-2,5-dicarboxamide] was less than 10 µM.
Still for that read-out and setting: the value for `CCCOc1ccc(-n2c(C(=O)OCC)c(O)c(O)c2C(=O)OCC)cc1` [UL2-016, diethyl 3,4-dihydroxy-1-(4-propoxyphenyl)-1H-pyrrole-2,5-dicarboxylate] was less than 10 µM; that for `COc1ccc(-n2c(C(=O)N(C)C)c(O)c(O)c2S(=O)(=O)NC(=O)OC(C)(C)C)cc1` [UL1-030, tert-butyl (5-(dimethylcarbamoyl)-3,4-dihydroxy-1-(4-methoxyphenyl)-1H-pyrrol-2-yl)sulfonylcarbamate] was 20 to 60 µM; that for `CCN(CC)C(=O)c1c(OCc2ccccc2)c(OCc2ccccc2)c(C(=O)N(CC)CC)n1-c1ccc(OC)cc1` [UL1-046, 3,4-bis(benzyloxy)-N^2,N^2,N^5,N^5-tetraethyl-1-(4-methoxyphenyl)-1H-pyrrole-2,5-dicarboxamide] was less than 10 µM.
Still for that read-out and setting: to `O=C(c1c(O)c(O)c(C(=O)N2CCCCC2)n1-c1ccc(F)cc1)N1CCCCC1` [UL1-011, (1-(4-fluorophenyl)-3,4-dihydroxy-1H-pyrrole-2,5-diyl)bis(piperidin-1-ylmethanone)] belongs less than 10 µM; to `CCOC(=O)c1c(O)c(O)c(C(=O)OCC)n1-c1ccc(C(C)(C)C)cc1` [UL2-032, diethyl 1-(4-(tert-butyl)phenyl)-3,4-dihydroxy-1H-pyrrole-2,5-dicarboxylate], less than 10 µM.
`O=C(c1c(O)c(O)c(C(=O)N2CCOCC2)n1-c1ccc(F)cc1)N1CCOCC1` [UL1-006, (1-(4-fluorophenyl)-3,4-dihydroxy-1H-pyrrole-2,5-diyl)bis(morpholinomethanone)]: under “class symbols of Table 1”, the IC50 was less than 10 µM.
On the same count and under the same terms, to `COc1ccc(-n2c(C(=O)OC(C)(C)C)c(O)c(O)c2C(=O)OC(C)(C)C)cc1` [UL2-022, di-tert-butyl 3,4-dihydroxy-1-(4-methoxyphenyl)-1H-pyrrole-2,5-dicarboxylate] belongs less than 10 µM; to `CCOC(=O)c1c(O)c(O)c(C(=O)OCC)n1-c1ccc(OCCOC)cc1` [UL2-034, diethyl 3,4-dihydroxy-1-(4-(2-methoxyethoxy)phenyl)-1H-pyrrole-2,5-dicarboxylate], less than 10 µM; to `CCOc1ccc(-n2c(C(N)=O)c(O)c(O)c2C(N)=O)cc1` [UL1-077, 1-(4-ethoxyphenyl)-3,4-dihydroxy-1H-pyrrole-2,5-dicarboxamide], 20 to 60 µM.
On to `CCOC(=O)c1c(OCC(=O)OC(C)(C)C)c(OCc2ccccc2)c(C(=O)OCC)n1-c1ccc(OC)cc1` [UL2-028, diethyl 3-(benzyloxy)-4-(2-(tert-butoxy)-2-oxoethoxy)-1-(4-methoxyphenyl)-1H-pyrrole-2,5-dicarboxylate], for which, where the note is “class symbols of Table 1”, the IC50 lay in the range of 20 to 60 µM.
Still for that read-out and setting: to `CC(C)(C)OC(=O)N1CCN(C(=O)c2c(O)c(O)c(C(=O)N3CCN(C(=O)OC(C)(C)C)CC3)n2-c2ccc(F)cc2)CC1` [UL1-009, di-tert-butyl 4,4′-(1-(4-fluorophenyl)-3,4-dihydroxy-1H-pyrrole-2,5-dicarbonyl)bis(piperazine-1-carboxylate)] belongs less than 10 µM.
Same read-out and setting: to `CCOc1ccc(-n2c(C(=O)N3CCOCC3)c(OCc3ccccc3)c(OCc3ccccc3)c2C(=O)N2CCOCC2)cc1` [UL1-053, (3,4-bis(benzyloxy)-1-(4-ethoxyphenyl)-1H-pyrrole-2,5-diyl)bis(morpholinomethanone)] belongs 10 to 20 µM; to `COc1ccccc1-n1c(C(=O)N(C)C)c(OCc2ccccc2)c(OCc2ccccc2)c1C(=O)N(C)C` [UL1-050, 3,4-bis(benzyloxy)-1-(2-methoxyphenyl)-N^2,N^2,N^5,N^5-tetramethyl-1H-pyrrole-2,5-dicarboxamide], 10 to 20 µM; to `CCOC(=O)c1c(O)c(O)c(C(=O)OCC)n1-c1ccc(C(C)C)cc1` [UL2-006, diethyl 3,4-dihydroxy-1-(4-isopropylphenyl)-1H-pyrrole-2,5-dicarboxylate], less than 10 µM.
On the same count and under the same terms, the value for `COc1ccc(-n2c(C(=O)N(C)C)c(O)c(O)c2C(=O)N2CCN(C)CC2)cc1` [UL1-027, 3,4-dihydroxy-1-(4-methoxyphenyl)-N,N-dimethyl-5-(4-methylpiperazine-1-carbonyl)-1H-pyrrole-2-carboxamide] was less than 10 µM.
`CCOc1ccc(-n2c(C(=O)N(C)C)c(O)c(O)c2C(=O)N(C)C)cc1` [UL1-021, 1-(4-ethoxyphenyl)-3,4-dihydroxy-N^2,N^2,N^5,N^5-tetramethyl-1H-pyrrole-2,5-dicarboxamide] came in with an IC50 (class symbols of Table 1) of less than 10 µM.
Same read-out and setting: to `CCOC(=O)c1c(O)c(O)c(C(=O)OCC)n1-c1ccc(OCCCN2CCOCC2)cc1` [UL2-037, diethyl 3,4-dihydroxy-1-(4-(3-morpholinopropoxy)phenyl)-1H-pyrrole-2,5-dicarboxylate] belongs less than 10 µM; to `COc1ccc(-n2c(C#N)c(O)c(O)c2C(=O)N(C)C)cc1` [UL1-031, 5-cyano-3,4-dihydroxy-1-(4-methoxyphenyl)-N,N-dimethyl-1H-pyrrole-2-carboxamide], less than 10 µM; to `CCOC(=O)c1c(O)c(O)c(C(=O)N(C)C)n1-c1ccc(OCCCN2CCOCC2)cc1` [UL1-102, ethyl 5-(dimethylcarbamoyl)-3,4-dihydroxy-1-(4-(3-morpholinopropoxy)phenyl)-1H-pyrrole-2-carboxylate], less than 10 µM.
The same measure, in the same setting: to `COc1ccc(-n2c(C(=O)N(C)C)c(O)c(O)c2P(C)(C)=O)cc1` [UL1-125, 5-(dimethylphosphoryl)-3,4-dihydroxy-1-(4-methoxyphenyl)-N,N-dimethyl-1H-pyrrole-2-carboxamide] belongs less than 10 µM; to `CCOC(=O)c1c(O)c(O)c(C(=O)OCC)n1-c1ccccc1OC` [UL2-023, diethyl 3,4-dihydroxy-1-(2-methoxyphenyl)-1H-pyrrole-2,5-dicarboxylate], 20 to 60 µM.
The same measure, in the same setting: to `CCOC(=O)c1c(OCc2ccccc2)c(OCc2ccccc2)c(-c2ccccn2)n1-c1ccc(OC)cc1` [UL1-082, ethyl 3,4-bis(benzyloxy)-1-(4-methoxyphenyl)-5-(pyridin-2-yl)-1H-pyrrole-2-carboxylate] belongs 10 to 20 µM.
Regarding `CCOC(=O)c1c(O)c(O)c(C(=O)OCC)n1-c1ccc(OC)c(OC)c1` [UL2-011, diethyl 1-(3,4-dimethoxyphenyl)-3,4-dihydroxy-1H-pyrrole-2,5-dicarboxylate], the IC50 (class symbols of Table 1) is less than 10 µM.
Still for that read-out and setting: to `CCOC(=O)c1c(O)c(O)c(C(=O)OCC)n1-c1ccc(CC)cc1` [UL2-009, diethyl 1-(4-ethylphenyl)-3,4-dihydroxy-1H-pyrrole-2,5-dicarboxylate] belongs less than 10 µM; to `CN(C(=O)c1c(O)c(O)c(C(=O)N(C)c2ccccc2)n1-c1ccc(F)cc1)c1ccccc1` [UL1-007, 1-(4-fluorophenyl)-3,4-dihydroxy-N^2,N^5-dimethyl-N^2,N^5-diphenyl-1H-pyrrole-2,5-dicarboxamide], 20 to 60 µM; to `CN(C)C(=O)c1c(OCc2ccccc2)c(OCc2ccccc2)c(C(=O)N(C)C)n1-c1ccc(C(F)(F)F)cc1` [UL1-054, 3,4-bis(benzyloxy)-N^2,N^2,N^5,N^5-tetramethyl-1-(4-(trifluoromethyl)phenyl)-1H-pyrrole-2,5-dicarboxamide], 10 to 20 µM.
On the same count and under the same terms, the value for `CCOC(=O)c1c(OCc2ccccc2)c(OCc2ccccc2)c(-c2ccccc2OC)n1-c1ccc(OC)cc1` [UL1-081, ethyl 3,4-bis(benzyloxy)-5-(2-methoxyphenyl)-1-(4-methoxyphenyl)-1H-pyrrole-2-carboxylate] was 20 to 60 µM.

Usually IC50 stands for the concentration that gives 50% inhibition. The low end stands for higher potency, the high end for lower potency.
